Measurements reported in US8883410B2, “Method for determining the stability of organic methyleneamines in the presence of semicarbazide-sensitive amine oxidase” (Sanofi, priority 2007, dated 2014).

Biological target: T1, human SSAO, full-length, untagged (Homo sapiens, UniProt Q16853)
T1 construct: expressed in transfected cells; cleared NP-40 cell lysate
T1 sequence (Q16853 1-763): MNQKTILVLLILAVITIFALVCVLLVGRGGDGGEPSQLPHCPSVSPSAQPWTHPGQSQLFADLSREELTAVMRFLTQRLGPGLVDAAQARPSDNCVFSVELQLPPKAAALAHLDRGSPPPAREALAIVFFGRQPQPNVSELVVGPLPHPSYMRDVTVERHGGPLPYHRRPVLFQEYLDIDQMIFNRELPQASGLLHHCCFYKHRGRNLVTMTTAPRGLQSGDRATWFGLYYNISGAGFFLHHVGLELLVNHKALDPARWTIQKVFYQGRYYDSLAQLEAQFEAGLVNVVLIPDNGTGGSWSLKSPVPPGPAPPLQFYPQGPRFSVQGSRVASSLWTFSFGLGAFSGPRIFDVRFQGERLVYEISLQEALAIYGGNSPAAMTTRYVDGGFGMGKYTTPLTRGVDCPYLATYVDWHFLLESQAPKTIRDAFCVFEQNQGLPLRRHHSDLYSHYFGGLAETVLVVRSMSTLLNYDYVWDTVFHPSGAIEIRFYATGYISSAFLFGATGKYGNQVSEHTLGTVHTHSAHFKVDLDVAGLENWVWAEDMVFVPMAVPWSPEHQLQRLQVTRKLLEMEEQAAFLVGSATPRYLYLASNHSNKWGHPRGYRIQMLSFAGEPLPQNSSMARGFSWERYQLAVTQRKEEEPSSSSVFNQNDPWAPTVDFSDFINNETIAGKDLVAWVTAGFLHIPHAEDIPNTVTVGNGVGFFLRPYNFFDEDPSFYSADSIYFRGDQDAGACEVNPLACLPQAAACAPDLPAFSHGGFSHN
Experiment: Benzylamine stability in lysate of cells expressing full-length SSAO (untagged), LC/MS/MS
Type: in vitro ADME
Description: The expression constructs were prepared by cloning these PCR products into the pCDNA5-FRT-To-DEST vector (Invitrogen, Gateway System™). The forward and reverse DNA sequence of each construct was confirmed including expressed sequences and at least 100 base pairs either side of this. Stable cell lines for Flp-In CHO, Flp-In CHO T-Rex, and Flp-In HEK 293 (Invitrogen, Flp-In system™) were generated using these 6 constructs according to manufacturer's instructions. Cells were co-transfected with the regulatory vector, pOG44, and each of the pCDNA5-FRT-To-DEST constructs using Lipfectamine (Invitrogen) according to manufacturer's instructions. Thus, 18 cell lines were generated: CHO Flp-In full-length SSAO; CHO Flp-In full-length SSAO with C-terminal 6×HIS tag; CHO Flp-In T1 SSAO; CHO Flp-In T1 SSAO with C-terminal 6×HIS tag; CHO Flp-In T2 SSAO; CHO Flp-In T2 SSAO with C-terminal 6×HIS tag; CHO T-Rex Flp-In full-length SSAO; CHO T-Rex Flp-In full-length SSAO with C-terminal 6×HIS tag; CHO T-Rex Flp-In T1 SSAO; CHO T-Rex Flp-In T1 SSAO with C-terminal 6×HIS tag; CHO T-Rex Flp-In T2 SSAO; CHO Flp-In T2 SSAO with C-terminal 6×HIS tag; HEK 293 Flp-In full-length SSAO; HEK 293 Flp-In full-length SSAO with C-terminal 6×HIS tag; HEK 293 Flp-In T1 SSAO; HEK 293 Flp-In T1 SSAO with C-terminal 6×HIS tag; HEK 293 Flp-In T2 SSAO; HEK 293 Flp-In T2 SSAO with C-terminal 6×HIS tag.
Adherent CHO cells were cultured at 37° C., 5% CO2 in media containing Ham's F12, 10% fetal bovine serum, 2 mM L-glutamine, 1% Penicillin/Streptomycin, 300 μM hygromycin B. Adherent HEK 293 cells were cultured at 37° C., 5% CO2 in D-MEM (high glucose), 10% fetal bovine serum, 2 mM L-glutamine, and 200 μM hygromycin B. Stable transformants were identified by loss of zeocin resistance. Once the cells were 80% confluent, SSAO expression was induced by the addition of Tetracycline to 1 μg/mL. Following 18 hours, the cells were harvested using a trypsin treatment of 3 minutes, at room temperature. Cells were washed 3 times in phosphate buffered saline before flash freezing in liquid nitrogen.
For the preparation of cell lysate for activity testing, frozen cell pellets were resuspended in lysate buffer containing 10 mM Tris-HCl (pH 7.2), 150 mM NaCl, 1.5 mM MgCl2, 1% v/v NP-40 and incubated for 15 minutes on ice. Lysate was cleared by centrifugation 800×g for 10 minutes, 4° C. and stored in aliquots at −80° C. until use. Proteins were determined using Pierce Coomassie Protein Reagent, according to manufacturer's instructions.
For each assay run, 1 mL of cell lysate (1.5 mg/mL protein) was mixed with benzylamine to 2000 ng/mL final concentration. At each corresponding time point, […] the incubation mixture was transferred to a microcentrifuge tube (1.7 mL) and mixed with 50 μL of acetonitrile. The tubes were vortex mixed briefly to ensure complete mixing and then centrifuged at 10,000×g for 5 minutes. The supernatant was removed and 50 μL was transferred to an autosampler vial and mixed with 50 μL of water before LC/MS/MS analysis. Benzylamine remaining in the lysate was analyzed with LC/MS/MS method.
LC/MS/MS analysis was performed with a PE Sciex API 3000 mass spectrometer under the following conditions listed below and in Tables 1 and 2:
The active lysates from CHO Flp-In, CHO Flp-In T-Rex or HEK293 Flp-In expressing full-length SSAO (untagged) were subsequently tested and activity confirmed (Table 4).

## NCc1ccccc1 [Benzylamine]
CHO Flp-In T-Rex lysate, Full-length SSAO, tag None, 0 min (Table 3)
  Benzylamine Remaining (%): 100%
CHO Flp-In T-Rex lysate, Full-length SSAO, tag None, 10 min (Table 3)
  Benzylamine Remaining (%): 6%
CHO Flp-In T-Rex lysate, Full-length SSAO, tag None, 2 h (Table 3)
  Benzylamine Remaining (%): 0%
CHO Flp-In T-Rex, full-length SSAO (untagged), 0 min, subsequent test (Table 4)
  Benzylamine Remaining (%): 100%
CHO Flp-In T-Rex, full-length SSAO (untagged), 10 min, subsequent test (Table 4)
  Benzylamine Remaining (%): 16%
CHO Flp-In T-Rex, full-length SSAO (untagged), 30 min, subsequent test (Table 4)
  Benzylamine Remaining (%): 1%
CHO Flp-In lysate, Full-length SSAO, tag None, 0 min (Table 3)
  Benzylamine Remaining (%): 100%
CHO Flp-In lysate, Full-length SSAO, tag None, 10 min (Table 3)
  Benzylamine Remaining (%): 1%
CHO Flp-In lysate, Full-length SSAO, tag None, 2 h (Table 3)
  Benzylamine Remaining (%): 1%
CHO Flp-In, full-length SSAO (untagged), 0 min, subsequent test (Table 4)
  Benzylamine Remaining (%): 100%
CHO Flp-In, full-length SSAO (untagged), 10 min, subsequent test (Table 4)
  Benzylamine Remaining (%): 9%
CHO Flp-In, full-length SSAO (untagged), 30 min, subsequent test (Table 4)
  Benzylamine Remaining (%): 1%
HEK293 Flp-In, full-length SSAO (untagged), 0 min, subsequent test (Table 4)
  Benzylamine Remaining (%): 100%
HEK293 Flp-In, full-length SSAO (untagged), 10 min, subsequent test (Table 4)
  Benzylamine Remaining (%): 50%
HEK293 Flp-In, full-length SSAO (untagged), 30 min, subsequent test (Table 4)
  Benzylamine Remaining (%): 9%
HEK293 lysate, Full-length SSAO, tag None, 0 min (Table 3)
  Benzylamine Remaining (%): 100%
HEK293 lysate, Full-length SSAO, tag None, 10 min (Table 3)
  Benzylamine Remaining (%): 58%
HEK293 lysate, Full-length SSAO, tag None, 2 h (Table 3)
  Benzylamine Remaining (%): 2%
